How the values were obtained:
[1] = tested on: New Zealand White rabbits; experiment: Fatty streak in the main artery of cholesterol-fed rabbits; type: in vivo, rabbit
Description: (§1) 22 three-month-old New Zealand White rabbits(Yeonam Horticulture and Animal Husbandry College, Korea) each weighing about 2.0 to 2.3 kg were bred under a condition of temperature 20±2° C., relative humidity 55±10%, and photoperiod 12L/12D. The rabbits were divided two groups of 6 rabbits and a group of 10 rabbits, and the rats of three groups were fed with three different diets, i.e., RC4 diet(Oriental Yeast Co., Japan) containing 1% cholesterol(Control group); 1% cholesterol plus 1 mg/kg Lovastatin® (Merck, U.S.A.)(Comparative group); and 1% cholesterol plus 0.1% NG5006, respectively. RC4 diet comprises 7.6% moisture, 22.8% crude protein, 2.8% crude fat, 8.8% crude ash, 14.4% crude cellulose and 43.6% soluble nitrogen-free substances. The rabbits were bred for 8 weeks while being allowed free access to the diets and water.
The rabbits bred in Step 1 were sacrificed and their chest were incised. The main artery was cut out therefrom in a length of about 5 cm downward from the site 1 cm above the aortic valve and the fat surrounding the main artery was removed. The main artery was incised in the middle along the longitudinal axis and fixed in 10% neutral buffered formalin for 24 hours, and then, pinned to a dish. The moist artery was photographed and, then, staining of fatty streak was carried out in accordance with the method of Esper, E., et al. (J. Lab. Clin. Med., 121, 103-110(1993)) as follows.
A part of the incised main artery was washed three times by 2 min. with anhydrous propylene glycol and stained for 30 min. with a saturated solution of Oil Red O(ORO, Sigma Co.) dissolved in propylene glycol. Thereafter, the artery was washed twice by 3 min. with 85% propylene glycol to remove remaining staining solution and, then washed with physical saline. The artery was photographed and the photograph was traced. The area of stained legion(fatty streak legion) was determined with an image analyzer(LEICA, Q-600, Germany) and its proportion(%) to the total arterial area was calculated. The result is shown in Table V. The results were tested by student t-test by using Microsoft excel(version 7.0) program.

[2] = tested on: ACAT; experiment: ACAT activity in fed rabbits; type: in vivo, rabbit; settings: rabbits fed 1% cholesterol plus 1 mg/kg Lovastatin or 0.1% NG5006, 8 weeks
Description: as §1
The effect of feeding NG5006 to rabbits on the activities of ACAT was determined using the rabbits bred in Step 1 of Example 14 in accordance with procedure disclosed in step 1 of Example 13.

[3] = tested on: New Zealand White rabbits; experiment: Abnormal fat-containing liver cells (fatty liver) in cholesterol-fed rabbits; type: in vivo, rabbit
Description: as §1
In order to evaluate the effects of feeding a high cholesterol diet with NG5006 on liver tissues, the liver specimens taken from the sacrificed rabbit in Step 2 of Example 14 were treated in accordance with the procedure disclosed in Fogt F. and Nanji A., Toxicology and Applied Pharmacology, 136, 87-93, 1996; and Keegan A., et al., Journal of Hepatology, 23, 591-600, 1995, and observed under a microscope to be classified into four grades, i.e., 1+(0-25%), 2+(26-50%), 3+(51-75), 4+(76-100%) based on the proportion of abnormal fat-containing cells around the central vein in the liver acinus. The results were tested by student t-test by using Microsoft excel(version 7.0) program.

[4] = tested on: Sprague-Dawley rats; experiment: Plasma total cholesterol, HDL-cholesterol and triglyceride levels in rats fed high-cholesterol diet; type: in vivo, rat
Excerpt: (Step 1) Administration of NG5006 to rats
30 four-week-old white Sprague-Dawley rats (Korea Institute of Science and Technology, Korea), each weighing about 90 to 120 g, were evenly divided into three dietary groups by a randomized block design. The rats of the three groups were fed with three different high-cholesterol diets, i.e., AIN-76 laboratory animal diet(ICN Biochemicals, Cleveland, Ohio, U.S.A.) containing 1% cholesterol(Control group), 1% cholesterol plus 0.02% naringenin and 1% cholesterol plus 0.036% NG5006, respectively.
The rats were allowed to feed freely on the specified diet together with water for six weeks, the ingestion amount was recorded daily and the rats were weighed every 7 days, and then the record was analyzed. […] (Step 2) Determination of total cholesterol, HDL-cholesterol and triglyceride contents in blood
The effects of administering naringenin or NG5006 to rats on the plasma cholesterol and triglyceride contents were determined as follows.
Blood samples were taken from the rats of the three dietary groups and total cholesterol level was determined by using Sigma Diagnostic Kit Cat. No. C0534(Sigma Chemical Co., U.S.A.). HDL fractions were separated therefrom by using HDL-cholesterol reagent(Sigma Chemical Co., Cat. No. 352-1) and HDL-cholesterol level was determined by using Sigma Diagnostic Kit Cat. No. C9908(Sigma Chemical Co., U.S.A.). Triglyceride level was determined by using Sigma Diagnostic Kit Cat. No. 336-10(Sigma Chemical Co., U.S.A.).

[5] = molecular target: T1, HMG-CoA reductase (Rattus norvegicus, UniProt P51639); experiment: HMG-CoA reductase activity in liver microsomes of fed rats; type: in vivo; settings: liver microsomes of rats fed 1% cholesterol plus 0.02% naringenin or 0.036% NG5006, six weeks
T1 construct: microsomes were separated from liver tissues to be used as an enzyme source; from tissue; host or cells: liver microsomes of fed rats
T1 sequence (P51639 1-887): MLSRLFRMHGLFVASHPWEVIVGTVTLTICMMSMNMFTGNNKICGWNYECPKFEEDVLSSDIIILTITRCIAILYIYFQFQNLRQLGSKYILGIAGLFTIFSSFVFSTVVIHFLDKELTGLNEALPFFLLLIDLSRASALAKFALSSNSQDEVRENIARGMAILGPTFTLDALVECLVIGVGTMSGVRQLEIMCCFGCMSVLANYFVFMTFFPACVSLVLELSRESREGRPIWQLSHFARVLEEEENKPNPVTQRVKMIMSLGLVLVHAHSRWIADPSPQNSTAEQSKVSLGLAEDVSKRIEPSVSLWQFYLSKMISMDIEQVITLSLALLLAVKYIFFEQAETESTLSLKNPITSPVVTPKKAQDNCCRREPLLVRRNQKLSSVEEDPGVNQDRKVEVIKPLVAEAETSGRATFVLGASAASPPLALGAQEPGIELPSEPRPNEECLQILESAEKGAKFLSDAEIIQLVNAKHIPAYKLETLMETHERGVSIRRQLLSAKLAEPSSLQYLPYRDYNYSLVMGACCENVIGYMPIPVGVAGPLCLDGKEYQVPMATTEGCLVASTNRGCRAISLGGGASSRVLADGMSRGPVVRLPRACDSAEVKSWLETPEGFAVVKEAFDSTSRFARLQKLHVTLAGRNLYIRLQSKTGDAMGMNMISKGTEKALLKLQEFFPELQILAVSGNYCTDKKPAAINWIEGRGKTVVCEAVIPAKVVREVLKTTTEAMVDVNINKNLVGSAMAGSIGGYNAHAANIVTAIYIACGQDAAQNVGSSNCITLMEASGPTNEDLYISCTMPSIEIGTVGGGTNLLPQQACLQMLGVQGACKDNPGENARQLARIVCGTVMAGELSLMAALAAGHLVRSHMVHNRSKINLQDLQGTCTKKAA
Description: (§2) To determine the effect of feeding NG5006 to rats on the activities of ACAT and HMG-CoA reductase, microsomes were separated from liver tissues to be used as an enzyme source.
(§3) 1 g each of the livers taken from each group of rats of Example 12 was homogenized in 5 ml of homogenization medium(0. 1 M KH2PO4, pH 7.4, 0.1 mM EDTA and 10 mM β-mercaptoethanol). The homogenate was centrifuged at 3,000×g for 10 min. at 4° C. and the supernatant thus obtained was centrifuged at 15,000×g for 15 min. at 4° C. to obtain a supernatant. The supernatant was put into an ultracentrifuge tube(Beckman) and centrifuged at 100,000×g for 1 hour at 4° C. to obtain microsomal pellets, which were then suspended in 3 ml of the homogenization medium and centrifuged at 100,000×g for 1 hour at 4° C. The pellets thus obtained were suspended in 1 ml of the homogenization medium. The protein concentration of the resulting suspension was determined by Lowry's method and then adjusted to 4 to 8 mg/ml. The resulting suspension was stored in a deep freezer(Biofreezer, Forma Scientific Inc.).
The activity of HMG-CoA reductase was determined by employing [^14C]HMG-CoA, in accordance with the method of Shapiro et al.(Biochemica et Biophysica Acta, 370, 369-377(1974)) as follows.
The enzyme in the supernatant containing the microsome obtained in (Step 1) was activated at 37° C. for 30 min. Added to a reaction tube were 20 μl of HMG-CoA reductase assay buffer(0.25M KH2PO4(pH 7.0), 8.75 mM EDTA, 25 mM DTT, 0.45 M KCl and 0.25 mg/ml BSA), 5 μl of 50 mM NADPH, 5 μl of [^14C]HMG-CoA(0.05μ Ci/tube, final conc. 120μM), and 10 μl of activated microsomal enzyme(0.03-0.04 mg), and the mixture was incubated at 37° C. for 30 min. […] A region having a Rf value ranging from 0.65 to 0.75 was removed by scraping with a disposable cover slips and assayed for radioactivity with 1450 Microbeta liquid scintillation counter(Wallac Co., Finland). Enzyme activities were calculated as picomoles mevalonic acid synthesized per min. per mg protein(pmoles/min/mg protein).

[6] = tested on: ACAT; experiment: ACAT activity in liver microsomes of fed rats; type: in vivo, rat; settings: liver microsomes of rats fed 1% cholesterol plus 0.02% naringenin or 0.036% NG5006, six weeks
Description: as §2, §3
6.67 μl of 1 mg/ml cholesterol solution in acetone was mixed with 6 μl of 10% Triton WR-1339(Sigma Co.) in acetone and then, acetone was removed from the mixture by evaporation under a nitrogen flow. Distilled water was added to the resulting mixture to adjust the concentration of cholesterol to […].
Added to 10 μl of the resulting aqueous cholesterol solution were 10 μl of 1 M KH2PO4(pH 7.4), 5 μl of 0.6 mM bovine serum albumin(BSA), 10 μl of microsome solution obtained in (Step 1) and 55 μl of distilled water(total 90 μl). The mixture was pre-incubated in a water bath at 37° C. for 30 min. […]
200 μl of the resulting supernatant was put in a scintillation bottle and 4 ml of scintillation fluid(Lumac Co.) was added thereto. The mixture was assayed for radioactivity with 1450 Microbeta liquid scintillation counter(Wallac Co., Finland). ACAT activity was calculated as picomoles of cholesteryl oleate synthesized per min. per mg protein(pmoles/min/mg protein).

[7] = 1% cholesterol plus 1 mg/kg Lovastatin or 0.1% NG5006
[8] = plasma, rats on 1% cholesterol diet plus 0.02% naringenin or 0.036% NG5006, six weeks
[9] = rats, 1% cholesterol diet, six weeks

## CC[C@H](C)C(=O)O[C@H]1C[C@@H](C)C=C2C=C[C@H](C)[C@H](CC[C@@H]3C[C@@H](O)CC(=O)O3)[C@H]21 [Lovastatin ®, Lovastatin, reference compound]
[1]; [7]
  layer on the arterial endothelium (FIGS. 1B, 1C): no or very thin layers of macrophage-lipid complex
[1]; 1% cholesterol plus 1 mg/kg Lovastatin or 0.1% NG5006, 8 weeks
  formation of fatty streak compared to the control group, in words: significantly inhibit the formation of fatty streak
[1]; 1% cholesterol plus 1 mg/kg Lovastatin or 0.1% NG5006, 8 weeks, Oil Red O staining
  Fatty Streak lesion (proportion of total arterial area): 18.0 ± 9.5%
[2]
  ACAT activity: 246.1 ± 52.5 pmole/min/mg protein
[2]; versus control group
  % Inhibition on ACAT Activity: 4.2%
[3]; [7]
  microscopic features of the livers (FIGS. 2B, 2C): many cells containing excessive fat were observed around the central vein
[3]; grades 1+(0-25%), 2+(26-50%), 3+(51-75), 4+(76-100%), 1% cholesterol plus 1 mg/kg Lovastatin or 0.1% NG5006, 8 weeks
  Proportion of abnormal fat-containing liver cells (grade): 3.3 ± 1.1

## O=C1C[C@@H](c2ccc(O)cc2)Oc2cc(O)cc(O)c21 [Naringenin, naringenin, reference compound]
[4]; [8]
  HDL-C (HDL-cholesterol): 35.8 ± 1.5 mg/dL
  HDL-C/Total-C: 18.8 ± 0.9%
  TG (triglyceride): 143.7 ± 9.4 mg/dL
  Total-C (total cholesterol): 190.6 ± 7.6 mg/dL
[4]; rats on 1% cholesterol diet plus 0.02% naringenin or 0.036% NG5006, six weeks
  AI: Atherosclerosis Index (AI = (Total-C − HDL-C)/HDL-C): 4.3 ± 0.3
[4]; [9]
  total plasma cholesterol level lower than in the Control group: 16%
  triglyceride level lower than in the control group: 6%
[5]
  HMG-CoA reductase activity: 87.7 ± 5.9 pmole/min/mg protein
[6]
  ACAT activity: 153.3 ± 6.9 pmole/min/mg protein

Reference: patent publication US6455577B2, “Flavanone derivatives and composition for preventing or treating blood lipid level-related diseases comprising same” (Korea Research Institute of Bioscience and Biotechnology, priority 2000, dated 2002)
